Experimental data: patent US20210317143A9, “BORONIC ESTER PRODRUGS AND USES THEREOF” (Massachusetts Institute of Technology, priority 2019, published 2021)

Legend:
[1] = test system: KMS11 subcutaneous tumor; assay: Efficacy study in subcutaneous model of MM (KMS11); format: in vivo, mice; settings: 0.75 mg/kg twice a week (Btz at MTD; Btz-BBP dose-match, intravenous)
Protocol: Treatments were administered over a period of 50 days, after which tumor were left to freely progress.
The subcutaneous model of MM was generated with an injection of 3 million KMS11 cells in the hind flank of NCR nude mice. […] Tumor growth was monitor by caliper measurements (tumor measurement. TM). Once the tumor reached 1 cm in diameter, mice were randomly attributed to a treatment group. […] Drug was injected twice a week for a period of 4 weeks (8 injections in total) after mice were enrolled in the study. Mice body weight were tracked till day 50 (body weight measurement, BWM). Animals were sacrificed once the tumor reached 2 cm in the longest axis.

[2] = test system: KMS11 cells; assay: In vitro cell viability assay (Celltiter glo) in KMS11; format: cell-based; settings: Homo sapiens, KMS-11; KMS11, effect on cell proliferation after 48 h of incubation
Protocol: (§1) The effect on cell proliferation after 48 h of incubation with each agent was compared.
(§2) Both cell lines were cultured in RPMI media (ThermoFisher Scientific) supplemented with 10% FBS (VWR), 1% Penicillin/Streptomycin (ThermoFisher Scientific), and 1% glutamine (ThermoFisher Scientific). MM.1SLuc+/GFP+ cells were generated by retroviral transduction and authenticated by short tandem repeat DNA profiling. All cell lines were confirmed to be mycoplasma negative using the kit MycoAlert Mycoplasma (Lonza). Cell lines were housed in 5% CO2 and 37° C., incubators.
(§3) Cells were plated at 10,000 cells/well in a 96 well plate overnight and then treated for 48 hours with either bortezomib (Btz) or Btz-bottlebrush (BBP) at various concentrations. Cell viability assay was performed using the Celltiter glo reagent kit (Promega).
(§4) Toxicological studies were carried out including in vitro cell viability experiments and in vivo survivability studies (FIGS. 8A to 8B and FIG. 9A, respectively). The in vitro cell viability studies were carried out in both MM S model (for experimental details see Manier, S, et al., Science Translational Medicine 2017, 9, 389) and KMS11 flank cancer model. […] For the maximum tolerated dose (MTD) studies, animals (n=3-5) were dosed 4 times, with the exception that the 20 mg/kg group was dosed three times.

[3] = test system: MM.1S cells; assay: In vitro cell viability assay (Celltiter glo) in MM.1S; format: cell-based; settings: Homo sapiens, MM1.S, effect on cell proliferation after 48 h of incubation
Protocol: as §1, §2, §3, §4

[4] = test system: healthy BALB/c mice; assay: In vivo toxicity / maximum tolerated dose in healthy BALB/c mice; settings: twice a week
Protocol: (§5) Mice were euthanized if their body weight reached a 20% loss.
as §4

[5] = as above; settings: BALB/c, mouse, in vivo, subcutaneous
Protocol: as §5, §4

[6] = test system: MM.1SLuc+/GFP+ cells; settings: 0.75 mg/kg (free Btz MTD; Btz-BBP dose-match)
Protocol: The tumors were induced via intravenous injection of MM.1SLuc+/GFP+ cells, and tumor progression was quantified by bioluminescence via the luciferase signal expressed by the MM.1S cells (FIGS. 12A to 12F). […] Mice (n=5) were treated for 30 days with the same treatment groups and dosing schedule described in the previous tumor model.
The orthotopic model of MM was obtained by injecting intravenously 1.5 million MM.1SLuc+/GFP+ cells in the tail vain of SCID/beige mice. Tumor dissemination was assessed by IVIS imaging (IVIS Spectrum. Perkin Elmer, bioluminescence imaging, BLI) once a week. […] Drug was injected twice a week for a period of 2 weeks (4 injections in total). Tumor burden response was obtained by IVIS imaging performed once a week. After 25 days, treatment was stopped. Endpoint criteria of the study was hind limb paralysis or loss of >20% of their initial body weight.

Question: Which mean survival time [1] does the source give for `CC(C)C[C@H](NC(=O)[C@H](Cc1ccccc1)NC(=O)c1cnccn1)B(O)O` [Btz, bortezomib] here?
Answer: 42 ± 6 days

Question: And the IC50 [2]?
Answer: 0.0299 ± 0.0016 µM

Question: What about the IC50 [3] of the same molecule?
Answer: 0.0035 ± 0.0014 µM

Question: And the “survival rates at higher doses” value ([4]; free Btz above 0.75 mg/kg (1, 1.25 mg/kg))?
Answer: rapid decrease of the survival rates

Question: What about the “well-tolerated / safe dose” value ([4]; healthy BALB/c mice) of the same molecule?
Answer: 0.75 mg/kg

Question: And the MTD at 4 weeks [5]?
Answer: 0.75 mg/kg

Question: What about the therapeutic improvement [6] of the same molecule?
Answer: diminished improvements
